Results: paper PMC10959927, “Platinum iodido drugs show potential anti-tumor activity, affecting cancer cell metabolism and inducing ROS and senescence in gastrointestinal cancer cells” (Communications Biology, 2024)
“And” between values parts separate entries of the source, which are not always exact repeats. Equal values may be shown once. Read-outs that look alike come from different tables or passages of the source.

Tests used:
[1] = system: HPDE cells; assay: Cell viability, crystal violet staining, non-tumoral cells; details: for percentage of viable cells: 48 h
Experimental: (§1) Cell viability was assessed using a crystal violet-based staining method. […] The cells (2 × 10^5) were seeded in 24-multiwell dishes in 0.5 mL of complete medium and incubated overnight. […] After 48 h, cells were fixed with 1% glutaraldehyde (20–30 min), washed with distilled water, and stained with 0.1% crystal violet. […] IC50 were calculated by using GraphPad Prism (version 8.0). Nonlinear regression was used to fit the data to the log (inhibitor) versus response (variable slope).

[2] = system: CC2509 fibroblasts; assay: as above; details: CC2509, 48 h
Experimental: as §1

[3] = system: MKN45 cells; assay: Flow cytometry mitochondrial mass and membrane potential (MitoTracker Green / CMXRos); assay type: cell-based, human
Experimental: (§2) We used flow cytometry to study the mitochondrial mass, mitochondrial membrane potential (ΔΨm) and cellular senescence of untreated and treated cells. Cells (5 × 10^4) were seeded in 24-multiwell dishes and cultured overnight. […] Cells were tripsinized, stained with Mitoprobes and resuspended in Flow buffer [1X PBS; 3% Fetal Bovine Serum (v/v); 3 mM EDTA (v/v)] before analysis with a 4-laser Attune NxT Acoustic Cytometer (Thermo Fisher Scientific). For Mitoprobe assays, […] DAPI (Sigma) was used to exclude dead cells. Data were analyzed with FlowJo 9.3 software (Tree Star Inc., Ashland, OR). For mitochondrial mass and ΔΨm measurement, Mitotracker Green (MTGreen, M7514, Invitrogen) and Mitotracker Red CMXRos (CMXROS, M7512, Invitrogen) were used, respectively. Probes were incubated with cells for 30 min at 37 °C at a concentration of 100 nM (MTGreen) and 20 nM (CMXROS), and fluorescence was detected using the filters (Ex488nm/Em530/30) BL1 and (Ex561nm/Em585/16) YL1, respectively. To determine mitochondria functionality, the ratio between ΔΨm (MitoTracker Red CMXRos) versus Mit. Mass (MitoTracker Green) was calculated. The gating strategy used in all the Flow Cytometry experiments is reflected in Fig.S10.

[4] = system: PANC1 cells; assay: as above; assay type: cell-based, human
Experimental: as §2

[5] = system: AGS cells; assay: as above; assay type: cell-based, human; details: fold change vs C, replicates
Experimental: as §2

[6] = system: MKN45 cells; assay: RT-qPCR gene expression (CDKN1A, IL6, MMP1, MAP2K3, SOD1, SOD2, CAT, MKI67, TNFRSF10D); assay type: cell-based, human
Experimental: (§3) Total cellular RNA was extracted using Tri-Reagent (Life Technologies), following the manufacturer’s instructions. One μg of total RNA was primed with random primers and cDNA synthesized with an M-MLV reverse transcriptase following the manufacturer’s instructions (Promega). Target genes were amplified using a SYBR Green polymerase chain reaction assay, working with the specific primer sets listed in Table 4.
(§4) Thermal cycling of the qPCR reaction was initiated with a denaturation step at 95 °C for 10 min. The process consisted of 40 cycles (denaturation at 95 °C for 15 sec, annealing at 60 °C for 30 sec, and elongation at 75 °C for 30 sec). PCR amplifications were carried out in a StepOne Real‐time PCR System (Applied Biosystems, 4376357). Relative mRNA levels were calculated by the delta-Ct method (2-ΔΔCt), where each 1-Ct difference equals a two-fold change in transcript abundance, using GAPDH as an endogenous gene reference. ΔΔCT represents the difference between the mean ΔCT value of the cells tested and the mean ΔCT value of the calibrator, both calculated for the same PCR run.

[7] = system: PANC1 cells; assay: as above; assay type: cell-based, human
Experimental: as §3, §4

[8] = system: AGS cells; assay: as above; assay type: cell-based, human
Experimental: as §3, §4

[9] = system: MKN45 cells; assay: Cell viability, crystal violet staining; details: for Cell Viability without NAC: MKN45 cells, Fig. S6A; for IC50: read-out: IC50 concentration (± SD) at 48 h, 48 h
Experimental: as §1

[10] = system: PANC1 cells; assay: Cell viability, crystal violet staining; details: for Cell Viability without NAC: PANC1 cells, Fig. S6A; for IC50: read-out: IC50 concentration (± SD) at 48 h, 48 h
Experimental: as §1

[11] = system: AGS cells; assay: Cell viability, crystal violet staining; details: for Cell Viability without NAC: AGS cells, Fig. S6A; for IC50: read-out: IC50 concentration (± SD) at 48 h, 48 h
Experimental: as §1

[12] = read-out: IC50 concentration (± SD) at 48 h in non-tumoral cell lines
[13] = MKN45, fold change vs C, replicates
[14] = PANC1, fold change vs C, replicates
[15] = MKN45, Fig. 3C, replicate values
[16] = PANC1, Fig. 3C, replicate values

CC(C)[NH][Pt@SP3]([I])([I])[NH]C(C)C [I5, trans-[PtI2(isopropylamine)2]] was tested, and the “percentage of viable cells” value ([1]; dose 2.5 µM) was 94.0083% and 103.787% and 91.0112%, the “percentage of viable cells” value ([1]; dose 5 µM) was 95.3512% and 98.9765% and 89.3059% and the “percentage of viable cells” value ([1]; dose 10 µM) was 88.9979% and 69.4985% and 69.7172%. The “percentage of viable cells” value ([1]; dose 25 µM) was 58.8843% and 42.8352% and 30.2314%, the “percentage of viable cells” value ([1]; dose 50 µM) was 20.4029% and 27.175% and 15.1157% and the IC50 [1, 12] was 26 µM and 25 µM and 26.8 µM. For the same compound, the “percentage of viable cells” value ([2]; dose 2.5 µM) was 100.938% and 100.862% and 91.106%, the “percentage of viable cells” value ([2]; dose 5 µM) was 83.0553% and 85.5747% and 89.9658% and the “percentage of viable cells” value ([2]; dose 10 µM) was 93.9868% and 89.8276% and 94.7548%. For the same compound, the “percentage of viable cells” value ([2]; dose 25 µM) was 85.5057% and 58.6494% and 84.1505%, the “percentage of viable cells” value ([2]; dose 50 µM) was 74.4584% and 49.6552% and 58.3178% and the “percentage of viable cells” value ([2]; dose 100 µM) was 38.4658% and 29.1313% and 33.9772%. For the same compound, the IC50 [2, 12] was 74.1 ± 5.42 µM, the “Fold change ΔΨm/MM” value ([3]; MKN45, IC50 doses 24 h, CMX-ROS/MitoGreen ratio vs untreated 1.0) was 0.47 and 0.42 and 0.46 and the “Fold change %CMXROS, ΔΨm” value [3, 13] was 0.4 and 0.35 and 0.72. For the same compound, the “Fold change %MTGreen, MM” value [3, 13] was 0.86 and 0.82 and 1.11, the “Fold change ΔΨm/MM” value ([4]; PANC1, IC50 doses 24 h, CMX-ROS/MitoGreen ratio vs untreated 1.0) was 0.46 and 0.55 and 0.5 and the “Fold change %CMXROS, ΔΨm” value [4, 14] was 1.17 and 1.2 and 1.05. For the same compound, the “Fold change %MTGreen, MM” value [4, 14] was 2.17 and 2.54 and 2.28, the “Fold change %CMXROS, ΔΨm” value [5] was 0.96 and 0.93 and 0.85 and the “Fold change %MTGreen, MM” value [5] was 1.08 and 1.04 and 1.0618. For the same compound, the “MKI67 Fold change vs GAPDH” value ([6]; MKN45, Fig. S4C) was 0.1536 fold change and 0.123 fold change and 0.1918 fold change, the “TNFRSF10D Fold change vs GAPDH” value ([6]; MKN45, Fig. S4C) was 1.273 fold change and 0.9869 fold change and 1.641 fold change and the “CAT (Fold change vs GAPDH)” value ([6]; MKN45, mRNA vs Control = 1) was 0.5641 Fold change and 0.4321 Fold change and 0.7364 Fold change. The “SOD1 (Fold change vs GAPDH)” value ([6]; MKN45, mRNA vs Control = 1) was 2.6 Fold change and 2.293 Fold change and 2.9486 Fold change, the “SOD2 (Fold change vs GAPDH)” value ([6]; MKN45, mRNA vs Control = 1) was 1.053 Fold change and 0.9005 Fold change and 1.465 Fold change and the “CDKN1A, Fold change vs GAPDH” value [6, 15] was 3.253 fold change and 2.596 fold change and 4.076 fold change. For the same compound, the “IL-6, Fold change vs GAPDH” value [6, 15] was 0.4948 fold change and 2.435 fold change and 1.266 fold change, the “MMP-1, Fold change vs GAPDH” value [6, 15] was 7.796 fold change and 5.223 fold change and 11.6341 fold change and the “Fold change MAP2K3 vs GAPDH” value ([6]; MKN45, Fig. 4B, replicate values) was 1.986 fold change and 1.696 fold change and 2.324 fold change. For the same compound, the “MKI67 Fold change vs GAPDH” value ([7]; PANC1, Fig. S4C) was 1.955 fold change and 1.4208 fold change and 2.69 fold change, the “TNFRSF10D Fold change vs GAPDH” value ([7]; PANC1, Fig. S4C) was 5.496 fold change and 3.924 fold change and 7.699 fold change and the “CAT (Fold change vs GAPDH)” value ([7]; PANC1, mRNA vs Control = 1) was 1.529 Fold change and 1.325 Fold change and 1.766 Fold change. The “SOD1 (Fold change vs GAPDH)” value ([7]; PANC1, mRNA vs Control = 1) was 1.806 Fold change and 1.686 Fold change and 1.679 Fold change, the “SOD2 (Fold change vs GAPDH)” value ([7]; PANC1, mRNA vs Control = 1) was 0.6164 Fold change and 0.5428 Fold change and 0.7 Fold change and the “CDKN1A, Fold change vs GAPDH” value [7, 16] was 4.551 fold change and 3.906 fold change and 5.303 fold change. The “IL-6, Fold change vs GAPDH” value [7, 16] was 7.572 fold change and 6.429 fold change and 8.917 fold change, the “MMP-1, Fold change vs GAPDH” value [7, 16] was 12.6345 fold change and 9.391 fold change and 8.708 fold change and the “Fold change MAP2K3 vs GAPDH” value ([7]; PANC1, Fig. 4B, replicate values) was 3.332 fold change and 2.993 fold change and 3.71 fold change. For the same compound, the “CDKN1A, Fold change vs GAPDH” value ([8]; Fig. 3C, replicate values) was 3.618 fold change and 2.316 fold change and 5.653 fold change, the “IL-6, Fold change vs GAPDH” value ([8]; Fig. 3C, replicate values) was 2.065 fold change and 3.223 fold change and 3.287 fold change and the “MMP-1, Fold change vs GAPDH” value ([8]; Fig. 3C, replicate values) was 226.834 fold change and 185.054 fold change and 278.046 fold change. The “Fold change MAP2K3 vs GAPDH” value ([8]; Fig. 4B, replicate values) was 4.889 fold change and 4.056 fold change and 5.8931 fold change, the “MKI67 Fold change vs GAPDH” value ([8]; Fig. S4C) was 0.1267 fold change and 0.1149 fold change and 0.1396 fold change and the “TNFRSF10D Fold change vs GAPDH” value ([8]; Fig. S4C) was 23.1799 fold change and 20.8545 fold change and 25.7647 fold change. The “CAT (Fold change vs GAPDH)” value ([8]; mRNA vs Control = 1) was 0.8688 Fold change and 0.7906 Fold change and 0.9547 Fold change, the “SOD1 (Fold change vs GAPDH)” value ([8]; mRNA vs Control = 1) was 1.921 Fold change and 1.645 Fold change and 2.244 Fold change and the “SOD2 (Fold change vs GAPDH)” value ([8]; mRNA vs Control = 1) was 1.44 Fold change and 1.254 Fold change and 1.654 Fold change. For the same compound, the “Cell Viability without NAC” value ([9]; dose 10 µM) was 97.9702 and 91.0232 and 100.944, the “Cell Viability without NAC” value ([9]; dose 25 µM) was 85.8879 and 70.3076 and 69.3928 and the “Cell Viability without NAC” value ([9]; dose 50 µM) was 44.0762 and 29.818 and 39.7772. The “Cell Viability without NAC” value ([9]; dose 75 µM) was 32.4358 and 27.3279 and 29.4931, the IC50 ([9]; MKN45, NAC (+) 0.5 mM) was greater than 100 µM and the IC50 ([9]; MKN45, NAC (-)) was 30 µM and 28.7 µM. For the same compound, the “Cell Viability without NAC” value ([10]; dose 10 µM) was 85.9915 and 83.1095 and 92.9481, the “Cell Viability without NAC” value ([10]; dose 25 µM) was 34.4587 and 38.5831 and 38.2547 and the “Cell Viability without NAC” value ([10]; dose 50 µM) was 18.5972 and 30.025 and 31.7453. The “Cell Viability without NAC” value ([10]; dose 75 µM) was 17.1129 and 21.5975 and 27.2406, the IC50 ([10]; PANC1, NAC (+) 0.5 mM) was greater than 100 µM and the IC50 ([10]; PANC1, NAC (-)) was 18 µM and 20 µM and 18.2 µM. The IC25 concentration ([11]; AGS) was 15 µM, the “Cell Viability without NAC” value ([11]; dose 10 µM) was 104.459 and the “Cell Viability without NAC” value ([11]; dose 50 µM) was 35.6312. The “Cell Viability without NAC” value ([11]; dose 75 µM) was 33.3189, the IC50 ([11]; AGS, NAC (+) 0.5 mM) was greater than 100 µM and the IC50 ([11]; AGS, NAC (-)) was 40 µM and 38.2 µM.
